Key:
[1] = tested on: doxorubicin-induced cardiotoxicity; assay: Model of doxorubicin-induced cardiotoxicity; assay type: in vivo, male mice; conditions: 5 days after DOX 20 mg/kg; for survival rate: 180 mg/kg i.p. once daily; for end-systolic LV volume: vs DOX vehicle group; for heart weight: vs DOX vehicle mice
Protocol: The aim of the present study was to evaluate, the effects of i.p administration of Nicotinamide Mononucleotide (NMN), compound I-B and compound I-C at 180 mg/kg in the progression of a cardiotoxicity induced by doxorubicin.
76 male mice, 8-week-old at the arrival were obtained from Janvier Labs, Le Genest St Isle, 53941 St Berthevin, France. Each animal was identified with electronic chip. Each cage was numbered. Based on the animal number/cage and number of cages, the animals were assigned of unique number with the name of group and mice number.
The powder of NMN, compounds I-B and I-C (180 mg/kg) were dissolved in vehicle (the solution is used at room temperature for maximum 1 day). A fresh sample for each administration was prepared every day except the week-end (the solution is prepared on Saturday and is used on Saturday and Sunday).
Cardiotoxicity was induced by a single intraperitoneal injection of doxorubicin (DOX) at 20 mg/kg. Doxorubicin was prepared at 2 mg/mL and volume of administration was 10 mL/Kg.
At D0, mice were injected with DOX (20 mg/kg) by intraperitoneal route.
The treatment with NMN, compounds I-B and I-C was initiated from 5 days before DOX injection, once per day, from D-5 to DO.
Mice were i.p treated with NMN, compounds I-B and I-C 30 min before DOX injection.
Mice were i.p treated with NMN, compounds I-B and I-C for the duration of the experiment (D0 to D5) once per day. Last injection occurred 24 hours before sacrifice.
The bodyweight was assessed at inclusion and at D5.
The survival rate was recorded every day until the end of the experiment (D5).
Retro-orbital blood collection was performed at the inclusion and at 1 and 5 days after the […] with DOX to assess biomarker (LDH and creatinine).
Echocardiography (ECG) was performed 5 days after doxorubicin injection in anesthetized (isoflurane 1.5-2%) animals with non-invasive two-dimensional echocardiography (VF16-5 probe, Siemens, Acuson NX3 Elite). After removing hairs on the chest, numeric images of the heart were obtained in both parasternal long-axis and short axis views.
The following cardiac function were assessed during ECG: • Left ventricle (LV) end-systolic and end-diastolic inner diameter; • LV end-systolic and end-diastolic volume, • Fractionnal shortening; • Ejection fraction; • Heart Rate; and • Anterior and posterior wall thickness in Diastole and in systole.

[2] = tested on: CYP-induced visceral pain; assay: Acute cyclophosphamide (CYP)-induced cystitis model, von Frey mechanical stimulation; assay type: in vivo, female Sprague-Dawley rats; conditions: 500 mg/kg p.o.
Protocol: The aim of the present study was to evaluate, the effects of oral administration of Nicotinamide Mono-Nucleoside (NMN), Pro-drug A (alpha-NMN) and Pro-drug B (compound I-A), compounds I-B and I-C at 500 mg/kg on visceral pain response in the acute cyclophosphamide (CYP)-induced cystitis model in female Sprague-Dawley rats.
Female Sprague-Dawley rats, 7 weeks at delivery
• NMN: 500 mg/kg • Pro-drug A: 500 mg/kg • Pro-drug B (compound I-A): 500 mg/kg • Compound I-B: 500 mg/kg • Compound I-C; 500 mg/kg • Vehicle: distilled water • Route of administration: per os (p.o.), 5 mL/kg • Frequency of administration: once at DO, 15 min prior CYP intraperitoneal (i.p.) injection.
=>lowered threshold=allodynia • Nociceptive score: % of the maximal response (total=9 for 3 pooled applications) for each filament

[3] = tested on: SS RBCs; assay: RBC sickling under hypoxia ex vivo (sickle cell disease mouse model); assay type: in vivo, Townes S/S mice; conditions: 1% O2 for 30 minutes ex vivo
Protocol: The aim of the present study was to evaluate, the effects of i.p. administration of Nicotinamide Mononucleotide (NMN), compound I-B and compound I-C at 185 mg/kg as modulator of red blood cell sickling and their potential role in therapy for sickle cell disease on a mouse model of SCD.
Townes S/S mice on a 129/B6 mixed genetic background.
The powder of NMN, compounds I-B and I-C (185 mg/kg) were dissolved in vehicle (the solution was used at room temperature for maximum 1 day). A fresh sample for each administration was prepared every day except the week-end (the solution is prepared on Saturday and is used on Saturday and Sunday).
In Townes S/S mice, mouse alpha- and beta-globin gene loci are deleted and replaced by human alpha- and beta-globins. When carrying two copies of the beta S allele, mice develop a human sickle cell disease phenotype with sickle-shaped red blood cells seen in blood smears.
Mice were i.p treated with NMN, compounds I-B and I-C during all the experiment (D0 to D15) once per day. Last injection occurred 24 hours before sacrifice.
Retro-orbital blood collection was performed at the inclusion D0 and at D5, D10 and D15 through facial vein bleeding.
Red blood cells collected were submitted to hypoxia (1% O2) for 30 minutes to induce sickling. Percentage of sickle cells was then assessed.
SS RBCs from treated mice were collected at D0, D5, D10 and D15 and were submitted to hypoxia for 30 minutes in a hypoxic chamber (1% O2). Percentage of sickling RBCs was then assessed for each time point with compounds NMN, I-B and I-C.

[4] = after 15 days treatment 185 mg/kg i.p. once daily

Compound | survival rate [1] | ejection fraction ([1]; 180 mg/kg i.p.) [%] | fractional shortening ([1]; 180 mg/kg i.p.) | heart rate ([1]; 180 mg/kg i.p.) [bpm] | LV anterior and posterior wall thickness in systole ([1]; 180 mg/kg i.p., vs DOX vehicle) | body weight loss after doxorubicin administration ([1]; 180 mg/kg i.p., vs DOX vehicle) | end-systolic LV volume ([1]; 180 mg/kg i.p.) | heart weight ([1]; 180 mg/kg i.p.) | nociceptive scores (CYP-induced visceral pain) vs vehicle ([2]; +2 h after CYP) | nociceptive scores (CYP-induced visceral pain) vs vehicle ([2]; +4 h after CYP) | nociceptive scores (CYP-induced visceral pain) vs vehicle ([2]; +6 h after CYP) | nociceptive threshold (CYP-induced allodynia) vs vehicle ([2]; +6 h after CYP) | percentage of sickling cells ([3]; D0 (start of treatment)) [%] | percentage of sickling cells [3, 4] | heart rate (change in words) ([1]; 180 mg/kg i.p., vs DOX vehicle) | nociceptive threshold (CYP-induced allodynia) vs vehicle ([2]; +2 h after CYP) | nociceptive threshold (CYP-induced allodynia) vs vehicle ([2]; +4 h after CYP) | reduction in plasma LDH release/levels ([1]; 180 mg/kg i.p., vs DOX vehicle)
NC(=O)c1ccc[n+]([C@@H]2O[C@H](COP(=O)([O-])OP(=O)([O-])OC[C@H]3O[C@H]([n+]4cccc(C(N)=O)c4)[C@H](O)[C@@H]3O)[C@@H](O)[C@H]2O)c1 [Compound I-B] | 98 % of survival | 60.0±0.6 | around 38% | 470.1±18.8 | non-significant increases | significantly decreased | reduced | tended to increase heart weight | significant decrease | significant decrease | significant decrease | significant increase | 32 | less than 15% |  |  |  | 
NC(=O)c1ccc[n+]([C@H]2O[C@H](COP(=O)([O-])OP(=O)([O-])OC[C@H]3O[C@H]([n+]4cccc(C(N)=O)c4)[C@H](O)[C@@H]3O)[C@@H](O)[C@H]2O)c1 [Compound I-C] | 100 % of survival | 58.2±0.5 | around 38% |  | non-significant increases | significantly decreased | reduced | tended to increase heart weight | significant decrease | significant decrease | significant decrease | significant increase | 31 | 20% | increased heart rates |  |  | 
NC(=O)c1ccc[n+]([C@H]2O[C@H](COP(=O)([O-])O)[C@@H](O)[C@H]2O)c1 [Pro-Drug A, alpha-NMN, reference compound] |  |  |  |  |  |  |  |  | decrease | achieved the statistical level |  |  |  |  |  | non-significant increase | significant increase | 
NC(=O)c1ccc[n+]([C@@H]2O[C@H](COP(=O)([O-])O)[C@@H](O)[C@H]2O)c1 [NMN, Nicotinamide Mononucleotide, reference compound] | 78 % of survival | 56.9±0.6 | around 38% |  | non-significant increases | significantly decreased | reduced |  | significant decrease | significant decrease |  |  | 40 | less than 10% | increased heart rates | slight increase | slight increase | more than 35%

— patent US20230096443A1, “NOVEL NICOTINAMIDE DI-NUCLEOTIDE DERIVATIVES AND USE THEREOF” (NUVAMID SA, priority 2019, published 2023)
